What all share (assay type): biochemical
Test [1] addresses T1, ADAMTS-5 recombinant protein (Homo sapiens (Human), UniProt Q9UNA0). Briefly: In vitro ELISA of ADAMTS-5 activity (Aggrecan-IGD enzymatic assay). Conditions: aggrecan-IGD substrate, ARGSVIL-peptide ELISA, 37° C. 45 minutes. As to the method:
In this assay, the enzymatic activity of recombinant ADAMTS-5 protein (catalog #2198-AD, R&D Systems) was assayed with a protein substrate, the aggrecan IGD protein. The aggrecan IGD protein is a polypeptide connecting human aggrecan globular domains 1 and 2 (T331-G458) expressed in E. Coli with a C-terminal His-tag (catalog #30411000, BIOTEZ). The enzymatic product ARGSVIL-peptide was detected using an ELISA kit from BioTEZ (catalog #30510111).
An assay buffer containing 50 mM HEPES pH 7.5, 100 mM NaCl, 5 mM CaCl2), 0.1% CHAPS and 5% Glycerol was prepared. Recombinant ADAMTS-5 protein was diluted to 0.3 nM in the assay buffer. Ten μl of […] and 10 μl of compound solution was transferred to each well of a 96-well plate and incubated at room temperature for 15 minutes. Substrate aggrecan-IGD was diluted to 100 nM with the assay buffer and 20 μl was added to each well. The plate was incubated at 37° C. for 45 minutes. After incubation, the newly generated epitope ARGSVIL-peptides were measured using the Aggrecanase Activity ELISA Assay Kit following the manufacturer's instructions. Then, 100 μl of stop solution was added and the absorbance of each well was read at 450 nm, using […] as reference on a TECAN plate reader.
A standard curve of the ELISA assay was generated in GraphPad Prism using Sigmoidal 4PL function and the corresponding peptide concentrations were calculated based on the standard curve. The IC50 values were calculated using function “log (inhibitor) vs. response—Variable slope (four parameters)”. (See Table 2).
(In an ELISA, binding on a coated surface is turned into a signal by an enzyme label.)

Test [2] deals with ADAMTS-4 recombinant protein (Homo sapiens (Human), UniProt O75173). Description: In vitro fluorescence (FRET-peptide) enzymatic assay of ADAMTS-4 activity. Conditions: FRET peptide substrate 15 μM, 10 nM enzyme, 37° C. 3 hours. As to the method: (§1) A FRET (fluorescence resonance energy transfer) peptide was cleaved by recombinant ADAMTS-4 or ADAMTS-5 proteins into two separate fragments resulting in an increase of fluorescence signal which was quantified. The peptide was 5-FAM-[…](5-TAMRA)K-NH2, customized from ANASPEC. ADAMTS-4 recombinant protein (catalog #4307-AD) and ADAMTS-5 recombinant protein (catalog #2198-AD) were purchased from R&D Systems.
Sequence of ADAMTS-4 recombinant protein (O75173 213-685): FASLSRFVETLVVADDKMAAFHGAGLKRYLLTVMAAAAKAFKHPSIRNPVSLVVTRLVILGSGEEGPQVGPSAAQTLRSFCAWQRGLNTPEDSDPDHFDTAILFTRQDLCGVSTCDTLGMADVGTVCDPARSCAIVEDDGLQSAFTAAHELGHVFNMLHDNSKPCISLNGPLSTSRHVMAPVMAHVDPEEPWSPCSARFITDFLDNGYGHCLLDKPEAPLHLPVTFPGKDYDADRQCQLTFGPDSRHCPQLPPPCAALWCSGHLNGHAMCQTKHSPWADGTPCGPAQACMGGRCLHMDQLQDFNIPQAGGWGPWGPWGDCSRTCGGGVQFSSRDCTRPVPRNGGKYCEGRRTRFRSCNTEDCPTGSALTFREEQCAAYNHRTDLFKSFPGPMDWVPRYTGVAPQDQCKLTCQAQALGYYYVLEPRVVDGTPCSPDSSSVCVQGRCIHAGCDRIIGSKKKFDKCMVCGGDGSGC
(§2) An assay buffer containing 50 mM HEPES pH 7.5, 100 mM NaCl, 5 mM CaCl2, 0.1% CHAPS and 5% Glycerol was prepared. A volume of 2.5 μl of compound in the assay buffer was dispensed to a 384-well plate, and 2.5 μl of ADAMTS-4 or ADAMTS-5 protein (final concentration in the reaction was 10 nM) was added. The compounds and proteins were pre-incubated at room temperature for 15 minutes. Then, 5 μl of substrate was added to each well. The final substrate concentrations for ADAMTS-4 and ADAMTS-5 were 15 μM and 8 μM, respectively. The fluorescence signal in each well was determined, after incubation at 37° C. for 3 hours, on a TECAN plate reader (Excitation, 490 nm; Emission, 520 nm).
(§3) The data was inputted into GraphPad Prism, and the IC50 values were calculated using function “log (inhibitor) vs. response—Variable slope (four parameters)”. (See Table 1)

The target in test [3] is T1, ADAMTS-5 recombinant protein. Description: In vitro fluorescence (FRET-peptide) enzymatic assay of ADAMTS-5 activity. Conditions: FRET peptide substrate 8 μM, 10 nM enzyme, 37° C. 3 hours. How it is done:
as §1, §2, §3

This note sets out measurements from US20240299360A1, “ADAMTS INHIBITORS, PREPARATION METHODS AND MEDICINAL USES THEREOF” (Jiangsu Hengrui Pharmaceuticals Co., Ltd., priority 2020, published 2024).

pIC50: −log10 of the molar value.

T1 sequence (Q9UNA0 262-622): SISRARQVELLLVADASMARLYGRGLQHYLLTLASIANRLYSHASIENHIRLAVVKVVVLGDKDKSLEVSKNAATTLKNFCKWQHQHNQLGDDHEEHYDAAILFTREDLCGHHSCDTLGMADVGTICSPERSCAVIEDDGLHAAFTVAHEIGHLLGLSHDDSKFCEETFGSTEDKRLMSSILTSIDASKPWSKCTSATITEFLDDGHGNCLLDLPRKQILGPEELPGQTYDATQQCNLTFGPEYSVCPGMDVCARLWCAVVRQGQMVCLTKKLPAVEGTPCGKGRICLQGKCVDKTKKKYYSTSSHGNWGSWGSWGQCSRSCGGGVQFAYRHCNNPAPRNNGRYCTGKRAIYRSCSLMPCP

By pIC50 is commonly meant the negative decadic logarithm of the IC50, by convention in mol/L. As to `O=C1NC(=O)[C@](CCC(=O)N2CCc3cc(C(F)(F)F)ccc3C2)(C2CC2)N1` [Example 6, (S)-5-cyclopropyl-5-(3-oxo-3-(6-(trifluoromethyl)-3,4-dihydroisoquinolin-2 (1H)-yl)propyl)imidazolidine-2,4-dione], the pIC50 is 6.19 in test [1], 7.25 in test [2] and 6.62 in test [3].

As for `O=C1NC(=O)[C@](CCC(=O)N2Cc3ccccc3C2)(C2CC2)N1` [Example 11, (S)-5-cyclopropyl-5-(3-(isoindolin-2-yl)-3-oxopropyl)imidazolidine-2,4-dione], the negative-log IC50 (pIC50) in test [1] was 6.25; in test [2], 6.96; in test [3] it was 6.39.

With `CC1CN(C(=O)CC[C@@]2(C3CC3)NC(=O)NC2=O)CCc2ccc(F)cc21` (stereo partly drawn) [Example 22, (5S)-5-cyclopropyl-5-(3-(8-fluoro-1-methyl-1,2,4,5-tetrahydro-3H-benzo[d]azepin-3-y1)-3-oxopropyl)imidazolidine-2,4-dione], the negative logarithm of the IC50 (pIC50) in test [1] was 6.85; in test [2], 7.29; in test [3], 7.21.

Consider `COc1ccc2c(c1)CN(C(=O)CC[C@@]1(C3CC3)NC(=O)NC1=O)C2` [Example 24, (S)-5-cyclopropyl-5-(3-(5-methoxyisoindolin-2-yl)-3-oxopropyl)imidazolidine-2,4-dione], for which the pIC50 in test [1] is 6.08; in test [2], 6.92; in test [3], 6.44.

Take `CC(C[C@@]1(C2CC2)NC(=O)NC1=O)C(=O)N1Cc2ccc(C(F)(F)F)cc2C1` (stereo partly drawn) [Example 29, (5S)-5-cyclopropyl-5-(2-methyl-3-oxo-3-(5-(trifluoromethyl)isoindolin-2-yl)propyl)imidazolidine-2,4-dione]: the negative-log IC50 (pIC50) was 7.25 in test [1], 7.85 in test [2] and 7.66 in test [3].

For the compound `COc1cc2c(cc1Cl)CN(C(=O)CC[C@@]1(C3CC3)NC(=O)NC1=O)C2` [Example 35, (S)-5-(3-(5-chloro-6-methoxyisoindolin-2-yl)-3-oxopropyl)-5-cyclopropylimidazolidine-2,4-dione], the pIC50 in test [1] is 6.77; in test [2], 6.64; in test [3], 6.96.

With `COc1cc2c(cc1Cl)CN(C(=O)C(C)C[C@@]1(C3CC3)NC(=O)NC1=O)C2` (stereo partly drawn) [Example 36-1, (5S)-5-(3-(5-chloro-6-methoxyisoindolin-2-yl)-2-methyl-3-oxopropyl)-5-cyclopropylimidazolidine-2,4-dione], the results for the pIC50 in test [1], in test [2] and in test [3] were 7.44, 7.68 and 7.82, respectively.

On to `CC1CN(C(=O)CC[C@@]2(C3CC3)NC(=O)NC2=O)CCc2cc(Cl)c(Cl)cc21` (stereo partly drawn) [Example 37, (S)-5-cyclopropyl-5-(3-(7,8-dichloro-1-methyl-1,2,4,5-tetrahydro-3H-benzo [d]azepin-3-yl)-3-oxopropyl)imidazolidine-2,4-dione], for which the pIC50 was 7.80 in test [1], 8.30 in test [2] and 7.89 in test [3].

Consider `CC1CN(C(=O)CC[C@@]2(C3CC3)NC(=O)NC2=O)CCc2ccc(Cl)c(Cl)c21` (stereo partly drawn) [Example 38, (S)-5-cyclopropyl-5-(3-(8,9-dichloro-1-methyl-1,2,4,5-tetrahydro-3H-benzo [d]azepin-3-yl)-3-oxopropyl)imidazolidine-2,4-dione], for which the figures for the negative logarithm of the IC50 (pIC50) in test [1], in test [2] and in test [3] were 7.54, 7.21 and 7.51, respectively.

As for `O=C1NC(=O)[C@](CCC(=O)N2Cc3cc(F)c(C(F)(F)F)cc3C2)(C2CC2)N1` [Example 39, (S)-5-cyclopropyl-5-(3-(5-fluoro-6-(trifluoromethyl)isoindolin-2-yl)-3-oxopropyl)imidazolidine-2,4-dione], the pIC50 in test [1] was 7.19; in test [2] it was 6.96; in test [3], 7.21.

Regarding `CC1c2cc(C(F)(F)F)c(Cl)cc2CN1C(=O)CC[C@@]1(C2CC2)NC(=O)NC1=O` (stereo partly drawn) [Example 41, (5S)-5-(3-(5-chloro-1-methyl-6-(trifluoromethyl)isoindolin-2-yl)-3-oxopropyl)-5-cyclopropylimidazolidine-2,4-dione], the pIC50 was 7.74 in test [1], 7.44 in test [2] and 7.68 in test [3].

With `CC(C)C(C[C@@]1(C2CC2)NC(=O)NC1=O)C(=O)N1Cc2ccc(C(F)(F)F)cc2C1` (stereo partly drawn) [Example 49-2, (5S)-5-cyclopropyl-5-(3-methyl-2-(5-(trifluoromethyl)isoindoline-2-carbonyl)butyl)imidazolidine-2,4-dione], the negative logarithm of the IC50 (pIC50) was 7.26 in test [1], 7.82 in test [2] and 7.70 in test [3].

As for `Nc1cc2c(cc1Cl)CN(C(=O)CC[C@@]1(C3CC3)NC(=O)NC1=O)C2` [Example 54, (S)-5-(3-(5-amino-6-chloroisoindolin-2-yl)-3-oxopropyl)-5-cyclopropylimidazolidine-2,4-dione], the pIC50 in test [1] was 6.70; in test [2], 7.96; in test [3], 6.96.

In the case of `Cc1cc2c(cc1Cl)CN(C(=O)CC[C@@]1(C3CC3)NC(=O)NC1=O)C2` [Example 57, (S)-5-(3-(5-chloro-6-methylisoindolin-2-yl)-3-oxopropyl)-5-cyclopropylimidazolidine-2,4-dione], the pIC50 in test [1] was 6.72; in test [2] it was 7.37; in test [3], 6.89.

Consider `O=C1NC(=O)C(CCC(=O)N2Cc3cc(Cl)c(Cl)cc3C2)(c2ccccn2)N1` (stereo not drawn) [Example 61, 5-(3-(5,6-dichloroisoindolin-2-yl)-3-oxopropyl)-5-(pyridin-2-yl)imidazolidine-2,4-dione], for which the results for the pIC50 in test [1], in test [2] and in test [3] were 7.14, 7.40 and 7.38, respectively.

Regarding `Cn1ccnc1C1(CCC(=O)N2Cc3ccc(C(F)(F)F)cc3C2)NC(=O)NC1=O` (stereo not drawn) [Example 62, 5-(1-methyl-1H-imidazol-2-yl)-5-(3-oxo-3-(5-(trifluoromethyl)isoindolin-2-yl)propyl)imidazolidine-2,4-dione], the pIC50 in test [1] is 6.54; in test [2], 7.00; in test [3], 7.05.

Consider `O=C1NC(=O)C(CC(COCc2ccccc2)C(=O)N2Cc3ccc(C(F)(F)F)cc3C2)(C2CC2)N1` (stereo not drawn) [Example 65, 5-(2-((benzyloxy)methyl)-3-oxo-3-(5-(trifluoromethyl)isoindolin-2-yl)propyl)-5-cyclopropylimidazolidine-2,4-dione], for which the values for the negative-log IC50 (pIC50) in test [1], in test [2] and in test [3] were 7.51, 7.80 and 7.68, respectively.

`CC1c2cc(Cl)c(Cl)cc2CN1C(=O)CC[C@@]1(C2CC2)NC(=O)NC1=O` (stereo partly drawn) [Example 66, (5S)-5-cyclopropyl-5-(3-(5,6-dichloro-1-methylisoindolin-2-yl)-3-oxopropyl)imidazolidine-2,4-dione]: the negative-log IC50 (pIC50) in test [1] is 7.08; in test [2] it was 7.37; in test [3], 7.28.

With `[2H]C1([2H])c2cc(Cl)c(Cl)cc2C(C)N1C(=O)CC[C@@]1(C2CC2)NC(=O)NC1=O` (stereo partly drawn) [Example 69, (5S)-5-cyclopropyl-5-(3-(5,6-dichloro-1-methylisoindolin-2-yl-3,3-d2)-3-oxopropyl)imidazolidine-2,4-dione], the figures for the negative logarithm of the IC50 (pIC50) in test [1], in test [2] and in test [3] were 7.33, 7.17 and 7.40, respectively.

With `[2H]C1([2H])c2cc(Cl)c(C(F)(F)F)cc2C(C)N1C(=O)CC[C@@]1(C2CC2)NC(=O)NC1=O` (stereo partly drawn) [Example 71, (5S)-5-(3-(5-chloro-1-methyl-6-(trifluoromethyl)isoindolin-2-yl-3,3-d2)-3-oxopropyl)-5-cyclopropylimidazolidine-2,4-dione], the negative logarithm of the IC50 (pIC50) in test [1] is 7.54; in test [2] it was 7.27; in test [3], 7.59.
